Measured values as given in patent US9376442B2, “Methylpyrrolopyrimidinecarboxamides” (Takeda GmbH, priority 2009, dated 2016).

Target: T1, PDE5A1 (Homo sapiens, UniProt O76074)
T1 construct: from tissue; host or cells: human platelets from fresh donor blood (10,000 x g supernatant of sonicated lysate)
Test: Inhibition of type 5 phosphodiesterase (PDE5) activity, modified SPA test with human platelet lysate
Type: biochemical
Settings: 0.5 μM cGMP, read-out: PDE5A1 inhibitory values [measured as −log IC50 (mol/l)] (converted)
Procedure, shortened: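 Enzyme source is lysate from human platelets (10,000 g supernatant). Compound preincubated 5 min at 37° C in Tris pH 7.4 containing 1 μM motapizone and 10 nM of a PDE2 inhibitor. Reaction started with 0.5 μM cGMP ([3H] tracer) and run 15 min; SPA read-out, IC50 by non-linear regression.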

Row | IC50 | Compound
1 | < 1 nM | COCC(=O)N[C@H]1CC[C@@H](NC(=O)c2c(C)[nH]c3c(-c4ccc(F)cc4OCC4CC4)ncnc23)CC1 [Example E27, 4-[2-(Cyclopropylmethoxy)-4-fluorophenyl]-N-{cis-4-[(methoxyacetyl)amino]cyclohexyl}-6-methyl-5H-pyrrolo[3,2-d]pyrimidine-7-carboxamide]
2 | < 1 nM | Cc1[nH]c2c(-c3ccc(F)cc3OCC3CC3)ncnc2c1C(=O)NC1CCN(C(=O)CO)CC1 [Example F11, 4-[2-(Cyclopropylmethoxy)-4-fluorophenyl]-N-(1-glycoloylpiperidin-4-yl)-6-methyl-5H-pyrrolo[3,2-d]pyrimidine-7-carboxamide]
3 | 1 to 10 nM | COc1ccc(OCC2CC2)c(-c2ncnc3c(C(=O)NC4CN(C(=O)C(C)O)CC4O)c(C)[nH]c23)c1 (mixture of isomers) [Example F120, 4-[2-(Cyclopropylmethoxy)-5-methoxyphenyl]-N-{(31R*,4R*)-4-hydroxy-1-[(2S)-2-hydroxypropanoyl]pyrrolidin-3-yl}-6-methyl-5H-pyrrolo[3,2-d]pyrimidine-7-carboxamide]
4 | < 1 nM | COc1cc(OCC2CC2)c(-c2ncnc3c(C(=O)NC4CCN(C(C)=O)CC4)c(C)[nH]c23)cc1F [Example E131, N-(1-Acetylpiperidin-4-yl)-4-[2-(cyclopropylmethoxy)-5-fluoro-4-methoxyphenyl]-6-methyl-5H-pyrrolo[3,2-d]pyrimidine-7-carboxamide]
5 | < 1 nM | COc1cc(OCC2CC2)c(-c2ncnc3c(C(=O)N[C@@H]4CCN(C(=O)CO)C4)c(C)[nH]c23)cc1F [Example F115, 4-[2-(Cyclopropylmethoxy)-5-fluoro-4-methoxyphenyl]-N-[(3R)-1-glycoloylpyrrolidin-3-yl]-6-methyl-5H-pyrrolo[3,2-d]pyrimidine-7-carboxamide]
6 | < 1 nM | CC(=O)c1ccc(OCC2CC2)c(-c2ncnc3c(C(=O)NC4CCN(C(C)=O)CC4)c(C)[nH]c23)c1 [Example E163, 4-[5-Acetyl-2-(cyclopropylmethoxy)phenyl-]-N-(1-acetylpiperidin-4-yl)-6-methyl-5H-pyrrolo[3,2-d]pyrimidine-7-carboxamide]
7 | < 1 nM | COc1cc(-c2ncnc3c(C(=O)N[C@@H]4CN(C(=O)CO)C[C@H]4O)c(C)[nH]c23)c(OCC2CC2)cc1F (relative stereo) [Example F113, 4-[2-(Cyclopropylmethoxy)-4-fluoro-5-methoxyphenyl]-N-[(3R*,4R*)-1-glycoloyl-4-hydroxypyrrolidin-3-yl]-6-methyl-5H-pyrrolo[3,2-d]pyrimidine-7-carboxamide]
8 | < 1 nM | CCOC(=O)N[C@H]1CC[C@H](NC(=O)c2c(C)[nH]c3c(-c4cc(OC)c(F)cc4OCC4CC4)ncnc23)CC1 [Example E109, Ethyl {trans-4-[({4-[2-(cyclopropylmethoxy)-4-fluoro-5-methoxyphenyl]-6-methyl-5H-pyrrolo[3,2-d]pyrimidin-7-yl}carbonyl)amino]cyclohexyl}carbamate]
9 | < 1 nM | COc1cc(-c2ncnc3c(C(=O)NC4CCN(C(=O)[C@H](C)O)CC4)c(C)[nH]c23)c(OCC2CC2)cc1F [Example F66, 4-[2-(Cyclopropylmethoxy)-4-fluoro-5-methoxyphenyl]-N-{1-[(2S)-2-hydroxypropanoyl]piperidin-4-yl}-6-methyl-5H-pyrrolo[3,2-d]pyrimidine-7-carboxamide]
10 | < 1 nM | Cc1cc(-c2ncnc3c(C(=O)NC4CCN(C(=O)[C@H](C)O)CC4)c(C)[nH]c23)c(OCC2CC2)cc1F [Example F76, 4-[2-(Cyclopropylmethoxy)-4-fluoro-5-methylphenyl]-N-{1-[(2S)-2-hydroxypropanoyl]piperidin-4-yl}-6-methyl-5H-pyrrolo[3,2-d]pyrimidine-7-carboxamide]
11 | < 1 nM | Cc1[nH]c2c(-c3c(OCC4CC4)ccc4c3OCO4)ncnc2c1C(=O)N[C@H]1CC[C@@H](NC(=O)[C@H](C)O)CC1 [Example F6, 4-[5-(Cyclopropylmethoxy)-1,3-benzodioxol-4-yl]-N-(cis-4-{[(2S)-2-hydroxypropanoyl]amino}cyclohexyl)-6-methyl-5H-pyrrolo[3,2-d]pyrimidine-7-carboxamide]
